Measurements from US9855268B2, “Triazolo[4,5-d]pyrimidine derivatives” (Merck Patent GmbH, priority 2013, dated 2018).

Experiments:
GCN2 [1] = biological target: T1, GCN2 (Homo sapiens, UniProt Q9P2K8); experiment: Cellular assay of GCN2 activity (phospho-eIF2alpha immunocytochemistry after tryptophanol); format: cell-based; design: endogenous in cells; host or cells: U2OS; conditions: Human U2OS cells, 2 h compound, 600 μM tryptophanol 30 min
In short: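 Readout in human U2OS cells: compound pretreatment 2 h, then tryptophanol (600 μM final) for 30 min to trigger GCN2 signalling. Fixed, permeabilised cells quantified by immunocytochemistry for phosphorylation, normalised to DMSO controls as % effect; IC50 from concentration-response.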
Target sequence in this assay (Q9P2K8 whole entry): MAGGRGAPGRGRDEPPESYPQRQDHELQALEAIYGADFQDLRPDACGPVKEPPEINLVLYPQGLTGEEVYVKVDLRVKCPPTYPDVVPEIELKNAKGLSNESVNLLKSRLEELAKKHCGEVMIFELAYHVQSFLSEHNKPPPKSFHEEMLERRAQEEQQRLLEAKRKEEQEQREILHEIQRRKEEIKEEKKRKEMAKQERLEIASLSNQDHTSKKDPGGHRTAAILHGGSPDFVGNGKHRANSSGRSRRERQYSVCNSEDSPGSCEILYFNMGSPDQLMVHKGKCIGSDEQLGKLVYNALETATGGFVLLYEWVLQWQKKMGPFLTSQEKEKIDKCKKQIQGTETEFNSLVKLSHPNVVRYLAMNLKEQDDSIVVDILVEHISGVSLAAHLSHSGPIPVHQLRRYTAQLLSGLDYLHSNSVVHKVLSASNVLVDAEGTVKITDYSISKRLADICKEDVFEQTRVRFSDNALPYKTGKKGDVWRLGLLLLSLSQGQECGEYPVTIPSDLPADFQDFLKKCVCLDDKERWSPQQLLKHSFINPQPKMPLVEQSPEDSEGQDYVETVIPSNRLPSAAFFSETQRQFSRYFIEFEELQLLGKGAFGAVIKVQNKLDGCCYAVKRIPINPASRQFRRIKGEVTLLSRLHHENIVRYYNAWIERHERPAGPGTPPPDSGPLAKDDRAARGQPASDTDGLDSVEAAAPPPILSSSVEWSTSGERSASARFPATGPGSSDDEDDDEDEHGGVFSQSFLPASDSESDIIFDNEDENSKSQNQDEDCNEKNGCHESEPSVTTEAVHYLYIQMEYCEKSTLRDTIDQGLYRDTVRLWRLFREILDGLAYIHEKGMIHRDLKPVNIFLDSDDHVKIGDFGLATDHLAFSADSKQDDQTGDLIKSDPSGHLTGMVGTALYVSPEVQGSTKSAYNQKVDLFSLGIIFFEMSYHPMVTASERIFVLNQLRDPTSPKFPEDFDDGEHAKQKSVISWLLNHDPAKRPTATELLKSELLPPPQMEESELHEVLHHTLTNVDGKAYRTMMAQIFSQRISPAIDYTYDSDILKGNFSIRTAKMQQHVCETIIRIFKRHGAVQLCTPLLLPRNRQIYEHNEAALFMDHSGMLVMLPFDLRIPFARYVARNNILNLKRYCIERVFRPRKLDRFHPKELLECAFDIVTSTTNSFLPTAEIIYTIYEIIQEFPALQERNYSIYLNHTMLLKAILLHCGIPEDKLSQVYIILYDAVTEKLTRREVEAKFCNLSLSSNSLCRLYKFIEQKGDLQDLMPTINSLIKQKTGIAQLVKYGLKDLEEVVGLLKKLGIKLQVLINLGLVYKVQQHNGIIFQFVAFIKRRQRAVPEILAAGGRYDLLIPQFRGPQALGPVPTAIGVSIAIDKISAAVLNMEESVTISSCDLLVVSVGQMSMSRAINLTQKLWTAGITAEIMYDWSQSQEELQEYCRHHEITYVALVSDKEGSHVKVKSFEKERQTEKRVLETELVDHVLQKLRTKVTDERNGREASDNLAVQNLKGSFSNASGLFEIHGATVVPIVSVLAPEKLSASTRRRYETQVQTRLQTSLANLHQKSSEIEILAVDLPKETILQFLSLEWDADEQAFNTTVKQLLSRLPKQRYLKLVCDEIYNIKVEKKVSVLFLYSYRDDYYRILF

GSK3β(h) = GSK3β(h) (Homo sapiens, UniProt P49841); experiment: GSK3β radiometric kinase assay (33P-ATP, phospho GS2 peptide); format: biochemical; conditions: read-out: IC50 GSK3β (enzyme assay)
GSK3β(h), sequence (P49841 whole entry): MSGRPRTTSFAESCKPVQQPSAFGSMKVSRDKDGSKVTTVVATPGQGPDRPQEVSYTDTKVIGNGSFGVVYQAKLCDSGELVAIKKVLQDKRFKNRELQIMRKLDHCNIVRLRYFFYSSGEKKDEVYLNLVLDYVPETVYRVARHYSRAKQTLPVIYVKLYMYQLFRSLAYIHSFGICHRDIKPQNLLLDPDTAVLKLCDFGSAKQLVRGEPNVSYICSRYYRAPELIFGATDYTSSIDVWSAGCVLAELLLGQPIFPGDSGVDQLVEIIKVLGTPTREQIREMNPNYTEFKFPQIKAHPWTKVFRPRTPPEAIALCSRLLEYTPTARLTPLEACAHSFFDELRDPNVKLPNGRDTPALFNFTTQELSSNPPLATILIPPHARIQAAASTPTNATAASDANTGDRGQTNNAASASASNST
In short: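 Human GSK3β in 8 mM MOPS pH 7,0, 0,2 mM EDTA, 10 mM Mg-acetate with 20 μM phospho-GS2 peptide; the reaction was started with [γ-33P]MgATP at an unstated level. After 40 min at room temperature it was stopped with phosphoric acid, and the peptide was captured on P30 filtermat for scintillation counting.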

GSK3α(h) = GSK3α(h) (Homo sapiens, UniProt P49840); experiment: GSK3α radiometric kinase assay (33P-ATP, phospho GS2 peptide); format: biochemical; conditions: read-out: IC50 GSK3α (enzyme assay)
GSK3α(h), sequence (P49840 whole entry): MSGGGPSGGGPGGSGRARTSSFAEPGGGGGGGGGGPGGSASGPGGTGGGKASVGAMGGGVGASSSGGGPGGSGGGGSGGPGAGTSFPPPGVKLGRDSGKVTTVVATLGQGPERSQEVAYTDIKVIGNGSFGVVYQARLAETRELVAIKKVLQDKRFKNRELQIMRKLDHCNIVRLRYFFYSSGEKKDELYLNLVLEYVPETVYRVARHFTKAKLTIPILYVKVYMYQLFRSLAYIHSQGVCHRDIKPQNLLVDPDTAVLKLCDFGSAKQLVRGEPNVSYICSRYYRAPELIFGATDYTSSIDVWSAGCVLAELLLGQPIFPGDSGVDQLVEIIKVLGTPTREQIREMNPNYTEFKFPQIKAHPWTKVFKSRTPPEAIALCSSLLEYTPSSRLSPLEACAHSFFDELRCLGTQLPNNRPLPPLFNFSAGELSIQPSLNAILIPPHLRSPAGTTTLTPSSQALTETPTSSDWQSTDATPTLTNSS
In short: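 Human GSK3α incubated with 20 μM phospho-GS2 peptide in 8 mM MOPS pH 7,0, 10 mM Mg-acetate and [γ-33P]ATP (concentration as required), started with MgATP. After 40 minutes at room temperature, stopped with phosphoric acid; 33P incorporation measured by filtermat spotting and scintillation counting.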

GCN2 [2] = biological target: T1, GCN2; experiment: GCN2 enzyme assay (TR-FRET Lanthascreen, GFP-eIF2alpha phosphorylation); format: biochemical; conditions: 10 μM ATP, 80 nM GFP-eIF2a, 30 nM GCN2
In short: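 Phosphorylation of GFP-eIF2alpha (80 nM) by GCN2 run at room temperature with 10 μM ATP. After EDTA quench, product quantified by Lanthascreen TR-FRET (antibody–GFP complex, 340 nm excitation).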
Target sequence in this assay (Q9P2K8 whole entry, species assumed): as the sequence (Q9P2K8 whole entry) above

SMILES | IC50 (GCN2 [1]) [nM] | IC50 (GSK3β(h)) [nM] | IC50 (GSK3α(h)) [nM] | IC50 (GCN2 [2]) [nM]
NC(=O)[C@@H]1CC[C@@H](Nc2ncc3nnn(-c4ccc(OC[C@@H](O)C(F)(F)F)cc4)c3n2)C1 [A155, (1R,3R)-3-{3-[4-((R)-3,3,3-trifluoro-2-hydroxy-propoxy)-phenyl]-3H-[1,2,3]triazolo[4,5-d]pyrimidin-5-ylamino}-cyclopentanecarboxylic acid amide] | 1000 to 5000 | < 1000 | < 1000 | < 1000
CCOc1ccc(-n2nnc3cnc(N[C@@H]4CC[C@@H](C(N)=O)C4)nc32)cc1F [A157, (1R,3R)-3-[3-(4-ethoxy-3-fluoro-phenyl)-3H-[1,2,3]triazolo[4,5-d]pyrimidin-5-ylamino]-cyclopentanecarboxylic acid amide] | 1000 to 5000 | < 1000 | < 1000 | < 1000
NC(=O)[C@@H]1CC[C@@H](Nc2ncc3nnn(-c4ccc(N5CCOCC5)c(F)c4)c3n2)C1 [A158, (1R,3R)-3-[3-(3-fluoro-4-morpholin-4-yl-phenyl)-3H-[1,2,3]triazolo[4,5-d]-pyrimidin-5-ylamino]-cyclopentanecarboxylic acid amide] | 5000 to 10000 | < 1000 | < 1000 | < 1000
COc1ccc(-n2nnc3cnc(N[C@@H]4CC[C@@H](C(N)=O)C4)nc32)cc1C [A162, (1R,3R)-3-[3-(4-methoxy-3-methyl-phenyl)-3H-[1,2,3]triazolo[4,5-d]pyrimidin-5-ylamino]-cyclopentanecarboxylic acid amide] | 5000 to 10000 | < 1000 | < 1000 | < 1000
CC(C)Oc1ccc(-n2nnc3cnc(N[C@@H]4CC[C@@H](C(N)=O)C4)nc32)cc1 [A164, (1R,3R)-3-[3-(4-isopropoxy-phenyl)-3H-[1,2,3]triazolo[4,5-d]pyrimidin-5-ylamino]-cyclopentanecarboxylic acid amide] | 5000 to 10000 | < 1000 | < 1000 | < 1000
Cc1cc2cc(-n3nnc4cnc(N[C@@H]5CC[C@@H](C(N)=O)C5)nc43)ccc2o1 [A180, (1R,3R)-3-[3-(2-methyl-benzofuran-5-yl)-3H-[1,2,3]triazolo[4,5-d]pyrimidin-5-ylamino]-cyclopentanecarboxylic acid amide] | 1000 to 5000 | < 1000 | < 1000 | < 1000
CCOCCOc1ccc2cc(-n3nnc4cnc(N[C@@H]5CC[C@@H](C(N)=O)C5)nc43)ccc2n1 [A182, (1R,3R)-3-{3-[2-(2-ethoxy-ethoxy)-quinolin-6-yl]-3H-[1,2,3]triazolo[4,5-d]-pyrimidin-5-ylamino}-cyclopentanecarboxylic acid amide] | 1000 to 5000 | < 1000 | < 1000 | < 1000
Cc1ncc2cc(-n3nnc4cnc(N[C@@H]5CC[C@@H](C(N)=O)C5)nc43)ccc2n1 [A184, (1R,3R)-3-[3-(2-methyl-quinazolin-6-yl)-3H-[1,2,3]triazolo[4,5-d]pyrimidin-5-ylamino]-cyclopentanecarboxylic acid amide] | 1000 to 5000 | < 1000 | < 1000 | < 1000
Cc1ccc2cc(-n3nnc4cnc(N[C@@H]5CC[C@@H](C(N)=O)C5)nc43)ccc2n1 [A187, (1R,3R)-3-[3-(2-methyl-quinolin-6-yl)-3H-[1,2,3]triazolo[4,5-d]-pyrimidin-5-ylamino]-cyclopentanecarboxylic acid amide] | < 1000 | < 1000 | < 1000 | < 1000
Cc1ccc2cc(-n3nnc4cnc(N[C@H]5CC[C@H](C(N)=O)C5)nc43)ccc2n1 [A193, (1S,3S)-3-[3-(2-methyl-quinolin-6-yl)-3H-[1,2,3]triazolo[4,5-d]pyrimidin-5-ylamino]-cyclopentanecarboxylic acid amide] | 1000 to 5000 | < 1000 | < 1000 | < 1000
OCCOc1ccc(-n2nnc3cnc(N[C@@H]4CC[C@@H](O)C4)nc32)cc1 [A203, (1R,3R)-3-{3-[4-(2-hydroxy-ethoxy)-phenyl]-3H-[1,2,3]triazolo[4,5-d]pyrimidin-5-ylamino}-cyclopentanol] | 1000 to 5000 | < 1000 | < 1000 | < 1000
O[C@@H]1CC[C@@H](Nc2ncc3nnn(-c4ccc5ncccc5c4)c3n2)C1 [A204, (1R,3R)-3-(3-quinolin-6-yl-3H-[1,2,3]triazolo[4,5-d]pyrimidin-5-ylamino)-cyclopentanol] | 1000 to 5000 | < 1000 | < 1000 | < 1000
CCOCCn1cc(-c2ccc(-n3nnc4cnc(N[C@@H]5CC[C@@H](C(N)=O)C5)nc43)cc2)cn1 [A211, (1R,3R)-3-(3-{4-[1-(2-ethoxy-ethyl)-1H-pyrazol-4-yl]-phenyl}-3H-[1,2,3]triazolo[4,5-d]pyrimidin-5-ylamino)-cyclopentanecarboxylic acid amide] | 5000 to 10000 | < 1000 | < 1000 | < 1000
COCCn1cc(-c2ccc(-n3nnc4cnc(N[C@@H]5CC[C@@H](O)C5)nc43)cc2)cn1 [A212, (1R,3R)-3-(3-{4-[1-(2-methoxy-ethyl)-1H-pyrazol-4-yl]-phenyl}-3H-[1,2,3]triazolo[4,5-d]pyrimidin-5-ylamino)-cyclopentanol] | 1000 to 5000 | < 1000 | < 1000 | < 1000
COCCn1cc(-c2ccc(-n3nnc4cnc(N[C@@H]5CC[C@@H](C(N)=O)C5)nc43)cc2)cn1 [A218, (1R,3R)-3-(3-{4-[1-(2-methoxy-ethyl)-1H-pyrazol-4-yl]-phenyl}-3H-[1,2,3]triazolo[4,5-d]pyrimidin-5-ylamino)-cyclopentanecarboxylic acid amide] | < 1000 | < 1000 | < 1000 | < 1000
Cc1nc(CCn2cc(-c3ccc(-n4nnc5cnc(N[C@@H]6CC[C@@H](C(N)=O)C6)nc54)cc3)cn2)no1 [A220, (1R,3R)-3-[3-(4-{1-[2-(5-methyl-[1,2,4]oxadiazol-3-yl)-ethyl]-1H-pyrazol-4-yl}-phenyl)-3H-[1,2,3]triazolo[4,5-d]pyrimidin-5-ylamino]-cyclopentanecarboxylic acid amide] | < 1000 | < 1000 | < 1000 | < 1000
COCCn1cc(-c2ccc(-n3nnc4cnc(N[C@@H]5CC[C@@H](C(N)=O)C5)nc43)cc2F)cn1 [A221, (1R,3R)-3-(3-{3-fluoro-4-[1-(2-methoxy-ethyl)-1H-pyrazol-4-yl]-phenyl}-3H-[1,2,3]triazolo[4,5-d]pyrimidin-5-ylamino)-cyclopentanecarboxylic acid amide] | 1000 to 5000 | < 1000 | < 1000 | < 1000
CCOCCn1cc(-c2ccc(-n3nnc4cnc(N[C@@H]5CC[C@@H](C(N)=O)C5)nc43)cc2F)cn1 [A223, (1R,3R)-3-(3-{4-[1-(2-ethoxy-ethyl)-1H-pyrazol-4-yl]-3-fluoro-phenyl}-3H-[1,2,3]triazolo[4,5-d]pyrimidin-5-ylamino)-cyclopentanecarboxylic acid amide] | < 1000 | < 1000 | < 1000 | < 1000
